In this experiment the test system is HBsAg secretion, HepG2-Clone42 cells (Tet-inducible HBV-expressing cell line, HBV ayw strain). The experiment is described as follows: HBsAg assay (HBsAg ELISA of secreted HBV sAg in HepG2-Clone42 cells). It is filed as cell-based. Particulars: Hepatitis B virus, read-out: HBsAg EC50. How it is done:
HepG2-Clone42, a Tet-inducible HBV-expressing cell line with a stably integrated 1.3mer copy of the HBV ayw strain, was generated based on the Tet-inducible HepAD38 cell line with slight modifications. Ladner S K, et al., Antimicrobial Agents and Chemotherapy. 41(8):1715-1720 (1997). HepG2-Clone42 cells were cultured in DMEM/F-12+ Glutamax™ (Life Technologies, Carlsbad, Calif., USA), supplemented with 10% fetal bovine serum (Life Technologies), G-418 (Corning, Manassas, Va., USA) at a final concentration of 0.5 mg/mL, and 5 μg/mL Doxycycline (Sigma, St. Louis, Mo., USA) and maintained in 5% CO2 at 37° C.
HepG2-Clone42 cells were seeded into black clear-bottom 96-well plates at a concentration of 6.0×10^4 cells/well. 24 hours post-seeding, the cells were treated with 200 μl/well of media containing five-fold serial dilutions of compounds in DMSO. DMSO alone was used as the no drug control. The final DMSO concentration in all wells was 0.5%.
The HBsAg ELISA kit (Alpha Diagnostic International, San Antonio, Tex., USE, Catalog #4110) was used to determine the level (semi-quantitative) of secreted HBV sAg. The HBSAg ELISA assay was performed following the manufacturer's protocol as described.
Step 1. Pipet 100 μL each of compound or DMSO treated samples into HBsAg ELISA plates. Seal plates and incubate at room temp for 60 minutes.
Step 2. Aspirate samples and wash three times with Wash Buffer. Dispense 100 μL of antibody-HRP conjugate to each well. Incubate at room temp for 30 minutes.
Step 3. Aspirate samples and wash three times with Wash Buffer. Add 100 μL of TMB Substrate to all wells and incubate 15 minutes at room temp.
Step 4. Dispense 100 μL of Stop Solution to each well. Measure absorbance of ELISA plate at 450 nm.
Dose-response curves were generated and the EC50 value was defined as the compound concentration at which HBsAg secretion was reduced 50% compared to the DMSO control.
EC50 values were determined as follows:
Determine the percent of HBsAg secretion inhibition. Calculate the percent inhibition on of HBsAg secretion inhibition using the following equation: (XC-MB)/(MDMB) • where XC is the absorbance signal from compound-treated well; MB is average absorbance signal (background signal) for column 12 (no cells+HBsAg ELISA sample buffer) and MD is average absorbance signal from DMSO-treated wells. Then calculate EC50 values by non-linear regression using a four parameter curve logistic equation. The curve fit model employed is XLFit Dose Response One Site Model 204: y=(A+((B−A)/(1+(10^((C−x)*D))))) where A is the minimum y value, B is the maximum y value, C is the log EC50 value, and D is the slope factor. +++means<1 nm; ++means≥1 nm and ≤10 nm and +means>10 nm.

For `COCCCOc1nn2c(c1Cl)-c1cc(=O)c(C(=O)O)cn1[C@H](C(C)(C)C)C2` [Compound 1.1, (R)-6-(tert-butyl)-1-chloro-2-(3-methoxypropoxy)-10-oxo-6,10-dihydro-5H-pyrazolo[1,5-a]pyrido[2,1-c]pyrazine-9-carboxylic acid], the EC50 was below 1 nM. For the compound `COCCCOc1cc2n(n1)C[C@@H](C(C)(C)C)n1cc(C(=O)O)c(=O)cc1-2` [Compound 1.2, (R)-6-(tert-butyl)-2-(3-methoxypropoxy)-10-oxo-6,10-dihydro-5H-pyrazolo[1,5-a]pyrido[2,1-c]pyrazine-9-carboxylic acid], the EC50 was above 10 nM. `COCCCOc1nn2c(c1Br)-c1cc(=O)c(C(=O)O)cn1[C@H](C(C)(C)C)C2` [Compound 1.3, (R)-1-bromo-6-(tert-butyl)-2-(3-methoxypropoxy)-10-oxo-6,10-dihydro-5H-pyrazolo[1,5-a]pyrido[2,1-c]pyrazine-9-carboxylic acid]: the EC50 lay within 1 to 10 nM. `CC(C)c1cc2n(n1)CC(C(C)(C)C)n1cc(C(=O)O)c(=O)cc1-2` (centres unmarked) [Compound 2.1, 6-(tert-butyl)-2-isopropyl-10-oxo-6,10-dihydro-5H-pyrazolo[1,5-a]pyrido[2,1-c]pyrazine-9-carboxylic acid]: the EC50 is above 10 nM. With `CC(C)(C)[C@@H]1Cn2nc(-c3ccccc3)c(Cl)c2-c2cc(=O)c(C(=O)O)cn21` [Compound 3.1, (R)-6-(tert-butyl)-1-chloro-10-oxo-2-phenyl-5,6-dihydro-10H-pyrazolo[1,5-a]pyrido[2,1-c]pyrazine-9-carboxylic acid], the EC50 was below 1 nM. With `COc1ccccc1-c1nn2c(c1Cl)-c1cc(=O)c(C(=O)O)cn1[C@H](C(C)(C)C)C2` [Compound 3.2, (R)-6-(tert-butyl)-1-chloro-2-(2-methoxyphenyl)-10-oxo-5,6-dihydro-10H-pyrazolo[1,5-a]pyrido[2,1-c]pyrazine-9-carboxylic acid], the EC50 is above 10 nM. `CC(C)[C@@H]1Cn2nc(-c3ccccc3)cc2-c2cc(=O)c(C(=O)O)cn21` [Compound 3.3, (R)-6-isopropyl-10-oxo-2-phenyl-5,6-dihydro-10H-pyrazolo[1,5-a]pyrido[2,1-c]pyrazine-9-carboxylic acid]: the EC50 is above 10 nM.

Take `CC(C)[C@@H]1Cn2nc(-c3ccccc3)c(Cl)c2-c2cc(=O)c(C(=O)O)cn21` [Compound 3.4, (R)-1-chloro-6-isopropyl-10-oxo-2-phenyl-6,10-dihydro-5H-pyrazolo[1,5-a]pyrido[2,1-c]pyrazine-9-carboxylic acid]: the EC50 was above 10 nM.

(Values after US11234977B2, “Fused tricyclic pyrazolo-dihydropyrazinyl-pyridone compounds as antivirals” (priority 2017, dated 2022).)
